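Assay format: 96-well plates, 48-hour exposure. The concentration for full growth arrest is given as TGI.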
Legend:
Assay in all cases: inhibition of tumour cell growth, NCI panel, 48 h
LOX IMVI melanoma = system: LOX IMVI melanoma
SW-620 colon = system: SW-620 colon
RPMI-8226 leukemia = system: RPMI-8226 leukemia
MDA-N = system: MDA-N
A549 NSCLC = system: A549 NSCLC
UO-31 renal = system: UO-31 renal
MOLT-4 leukemia = system: MOLT-4 leukemia
NCI-H23 lung = system: NCI-H23 lung
KM12 colon = system: KM12 colon
SN12C renal = system: SN12C renal
SF-539 CNS = system: SF-539 CNS
SNB-19 CNS = system: SNB-19 CNS
HS 578T breast = system: HS 578T breast
SK-OV-3 ovarian = system: SK-OV-3 ovarian
PC-3 prostate = system: PC-3 prostate
CAKI-1 renal = system: CAKI-1 renal
T-47D breast = system: T-47D breast
OVCAR-5 ovarian = system: OVCAR-5 ovarian
OVCAR-8 ovarian = system: OVCAR-8 ovarian
MALME-3M melanoma = system: MALME-3M melanoma
HOP-62 NSCLC = system: HOP-62 NSCLC
SK-MEL-5 melanoma = system: SK-MEL-5 melanoma
HCT-116 colon = system: HCT-116 colon
EKVX NSCLC = system: EKVX NSCLC
MCF7 breast = system: MCF7 breast
UACC-257 melanoma = system: UACC-257 melanoma
K-562 leukemia = system: K-562 leukemia
ACHN renal = system: ACHN renal
SF-295 CNS = system: SF-295 CNS
CCRF-CEM leukemia = system: CCRF-CEM leukemia
RXF 393 renal = system: RXF 393 renal
HT29 colon = system: HT29 colon
NCI-H460 lung = system: NCI-H460 lung
TK-10 renal = system: TK-10 renal
HCC-2998 colon = system: HCC-2998 colon
BT-549 breast = system: BT-549 breast
SR leukemia = system: SR leukemia
SF-268 CNS = system: SF-268 CNS
OVCAR-3 ovarian = system: OVCAR-3 ovarian
MDA-MB-435 = system: MDA-MB-435
SK-MEL-2 melanoma = system: SK-MEL-2 melanoma
NCI/ADR-RES ovarian = system: NCI/ADR-RES ovarian
U251 CNS = system: U251 CNS
COLO 205 colon = system: COLO 205 colon
MDA-MB-231 breast = system: MDA-MB-231 breast
SNB-75 CNS = system: SNB-75 CNS
NCI-H226 lung = system: NCI-H226 lung
UACC-62 melanoma = system: UACC-62 melanoma
M14 melanoma = system: M14 melanoma
SK-MEL-28 melanoma = system: SK-MEL-28 melanoma
786-0 renal = system: 786-0 renal
A498 renal = system: A498 renal
DU-145 prostate = system: DU-145 prostate
HCT-15 colon = system: HCT-15 colon
OVCAR-4 ovarian = system: OVCAR-4 ovarian
NCI-H522 lung = system: NCI-H522 lung
IGROV1 ovarian = system: IGROV1 ovarian
HOP-92 NSCLC = system: HOP-92 NSCLC
HL-60(TB) leukemia = system: HL-60(TB) leukemia

O=[N+]([O-])C(=C(Nc1ccccc1)Nc1ccccc1)/C(Cl)=C(\Cl)[N+](=O)[O-] gave a TGI (LOX IMVI melanoma) of 11.4 µM, a TGI (SW-620 colon) of 5.6 µM and a TGI (RPMI-8226 leukemia) of 19.2 µM. The TGI (MDA-N) was 10.5 µM, the TGI (A549 NSCLC) was 35.6 µM and the TGI (UO-31 renal) was 8.21 µM. It also gave a TGI (MOLT-4 leukemia) of 17.7 µM, a TGI (NCI-H23 lung) of 11.2 µM and a TGI (KM12 colon) of 14.8 µM. The TGI (SN12C renal) was 7.77 µM, the TGI (SF-539 CNS) was 4.15 µM and the TGI (SNB-19 CNS) was 26.8 µM. It also gave a TGI (HS 578T breast) of 8.74 µM, a TGI (SK-OV-3 ovarian) of over 100 µM and a TGI (PC-3 prostate) of 20.9 µM. The TGI (CAKI-1 renal) was 3.18 µM, the TGI (T-47D breast) was 7.43 µM and the TGI (OVCAR-5 ovarian) was 22.7 µM. It also gave a TGI (OVCAR-8 ovarian) of 2.77 µM, a TGI (MALME-3M melanoma) of 14.2 µM and a TGI (HOP-62 NSCLC) of 26.4 µM. It also gave a TGI (SK-MEL-5 melanoma) of 5.05 µM, a TGI (HCT-116 colon) of 10.7 µM and a TGI (EKVX NSCLC) of 19.5 µM. For the same compound, the TGI (MCF7 breast) was 20.3 µM, the TGI (UACC-257 melanoma) was 19.7 µM and the TGI (K-562 leukemia) was over 100 µM. For the same compound, the TGI (ACHN renal) was 7.12 µM, the TGI (SF-295 CNS) was 26.1 µM and the TGI (CCRF-CEM leukemia) was 92.5 µM. It also gave a TGI (RXF 393 renal) of 6.13 µM, a TGI (HT29 colon) of 8.73 µM and a TGI (NCI-H460 lung) of 53.7 µM. It also gave a TGI (TK-10 renal) of 16.9 µM, a TGI (HCC-2998 colon) of 28.9 µM and a TGI (BT-549 breast) of 13.7 µM. It also gave a TGI (SR leukemia) of over 100 µM, a TGI (SF-268 CNS) of 14.6 µM and a TGI (OVCAR-3 ovarian) of 12 µM. The TGI (MDA-MB-435) was 10.5 µM, the TGI (SK-MEL-2 melanoma) was 31.8 µM and the TGI (NCI/ADR-RES ovarian) was 38.5 µM. The TGI (U251 CNS) was 18.1 µM, the TGI (COLO 205 colon) was 7.08 µM and the TGI (MDA-MB-231 breast) was 10.8 µM. The TGI (SNB-75 CNS) was 22.4 µM, the TGI (NCI-H226 lung) was 34.5 µM and the TGI (UACC-62 melanoma) was 18.7 µM. The TGI (M14 melanoma) was 16.8 µM, the TGI (SK-MEL-28 melanoma) was 16.3 µM and the TGI (786-0 renal) was 15 µM. It also gave a TGI (A498 renal) of 46.2 µM, a TGI (DU-145 prostate) of 8.92 µM and a TGI (HCT-15 colon) of 12.3 µM. The TGI (OVCAR-4 ovarian) was 17.6 µM.

With COc1cc(C(=O)/C=C/c2ccc(OCC#N)cc2)cc(OC)c1OC the TGI (SW-620 colon) was 37.3 µM, the TGI (MDA-N) was over 100 µM and the TGI (A549 NSCLC) was 50.9 µM. For the same compound, the TGI (UO-31 renal) was 31.4 µM, the TGI (MOLT-4 leukemia) was 90.7 µM and the TGI (NCI-H23 lung) was 43.2 µM. It also gave a TGI (KM12 colon) of 32 µM, a TGI (NCI-H522 lung) of 35.9 µM and a TGI (SN12C renal) of 36.3 µM. For the same compound, the TGI (SF-539 CNS) was 33.2 µM, the TGI (SNB-19 CNS) was 54.4 µM and the TGI (HS 578T breast) was over 100 µM. For the same compound, the TGI (SK-OV-3 ovarian) was over 100 µM, the TGI (PC-3 prostate) was 38 µM and the TGI (CAKI-1 renal) was 69.6 µM. The TGI (T-47D breast) was 36.5 µM, the TGI (OVCAR-5 ovarian) was over 100 µM and the TGI (OVCAR-8 ovarian) was over 100 µM. It also gave a TGI (MALME-3M melanoma) of 33 µM, a TGI (HOP-62 NSCLC) of 58.6 µM and a TGI (SK-MEL-5 melanoma) of 25.9 µM. It also gave a TGI (HCT-116 colon) of 26.9 µM, a TGI (EKVX NSCLC) of over 100 µM and a TGI (MCF7 breast) of 23.3 µM. The TGI (IGROV1 ovarian) was over 100 µM, the TGI (UACC-257 melanoma) was over 100 µM and the TGI (K-562 leukemia) was 86.9 µM. The TGI (ACHN renal) was 51.8 µM, the TGI (SF-295 CNS) was over 100 µM and the TGI (CCRF-CEM leukemia) was 65.1 µM. It also gave a TGI (RXF 393 renal) of 34.1 µM, a TGI (HT29 colon) of over 100 µM and a TGI (NCI-H460 lung) of 80.9 µM. The TGI (TK-10 renal) was 70.1 µM, the TGI (HCC-2998 colon) was 30.6 µM and the TGI (BT-549 breast) was 32 µM. It also gave a TGI (SR leukemia) of 55.4 µM, a TGI (SF-268 CNS) of over 100 µM and a TGI (OVCAR-3 ovarian) of 59.5 µM. It also gave a TGI (MDA-MB-435) of 40.2 µM, a TGI (NCI/ADR-RES ovarian) of 48.3 µM and a TGI (U251 CNS) of 33.4 µM. For the same compound, the TGI (COLO 205 colon) was 39.5 µM, the TGI (NCI-H226 lung) was 58.5 µM and the TGI (UACC-62 melanoma) was 48.5 µM. For the same compound, the TGI (SK-MEL-28 melanoma) was 32 µM, the TGI (HOP-92 NSCLC) was 35.9 µM and the TGI (786-0 renal) was 37.9 µM. For the same compound, the TGI (A498 renal) was 65.9 µM, the TGI (DU-145 prostate) was 79.8 µM and the TGI (HCT-15 colon) was 40.3 µM. It also gave a TGI (OVCAR-4 ovarian) of over 100 µM.

In the case of Cc1ccc(Cc2n[nH]c(=O)n2Nc2ccccc2)cc1, the TGI (LOX IMVI melanoma) is reported as over 100 µM, the TGI (SW-620 colon) is reported as over 100 µM and the TGI (RPMI-8226 leukemia) is reported as over 100 µM. It also gave a TGI (MDA-N) of over 100 µM, a TGI (A549 NSCLC) of over 100 µM and a TGI (UO-31 renal) of over 100 µM. It also gave a TGI (MOLT-4 leukemia) of over 100 µM, a TGI (NCI-H23 lung) of over 100 µM and a TGI (KM12 colon) of over 100 µM. The TGI (NCI-H522 lung) was over 100 µM, the TGI (HL-60(TB) leukemia) was over 100 µM and the TGI (SN12C renal) was over 100 µM. It also gave a TGI (SF-539 CNS) of over 100 µM, a TGI (SNB-19 CNS) of over 100 µM and a TGI (HS 578T breast) of over 100 µM. For the same compound, the TGI (SK-OV-3 ovarian) was over 100 µM, the TGI (CAKI-1 renal) was over 100 µM and the TGI (T-47D breast) was over 100 µM. It also gave a TGI (OVCAR-5 ovarian) of over 100 µM, a TGI (OVCAR-8 ovarian) of over 100 µM and a TGI (MALME-3M melanoma) of over 100 µM. The TGI (HOP-62 NSCLC) was over 100 µM, the TGI (SK-MEL-5 melanoma) was over 100 µM and the TGI (HCT-116 colon) was over 100 µM. The TGI (EKVX NSCLC) was over 100 µM, the TGI (MCF7 breast) was over 100 µM and the TGI (IGROV1 ovarian) was over 100 µM. It also gave a TGI (UACC-257 melanoma) of over 100 µM, a TGI (K-562 leukemia) of over 100 µM and a TGI (ACHN renal) of over 100 µM. The TGI (SF-295 CNS) was over 100 µM, the TGI (CCRF-CEM leukemia) was over 100 µM and the TGI (HT29 colon) was over 100 µM. The TGI (NCI-H460 lung) was over 100 µM, the TGI (TK-10 renal) was over 100 µM and the TGI (HCC-2998 colon) was over 100 µM. It also gave a TGI (BT-549 breast) of over 100 µM, a TGI (SR leukemia) of over 100 µM and a TGI (SF-268 CNS) of over 100 µM. It also gave a TGI (OVCAR-3 ovarian) of over 100 µM, a TGI (MDA-MB-435) of over 100 µM and a TGI (SK-MEL-2 melanoma) of over 100 µM. The TGI (NCI/ADR-RES ovarian) was over 100 µM, the TGI (U251 CNS) was over 100 µM and the TGI (COLO 205 colon) was over 100 µM. The TGI (MDA-MB-231 breast) was over 100 µM, the TGI (NCI-H226 lung) was over 100 µM and the TGI (UACC-62 melanoma) was over 100 µM. For the same compound, the TGI (SK-MEL-28 melanoma) was over 100 µM, the TGI (HOP-92 NSCLC) was over 100 µM and the TGI (786-0 renal) was over 100 µM. The TGI (A498 renal) was over 100 µM, the TGI (DU-145 prostate) was over 100 µM and the TGI (HCT-15 colon) was over 100 µM. It also gave a TGI (OVCAR-4 ovarian) of over 100 µM.

— PubChem BioAssay (NCI)
